According to patent US12594261B2, “Use of heterocyclic derivatives with cardiomyocyte proliferation activity for treatment of heart diseases” (SHANGHAI EAST HOSPITAL (EAST HOSPITAL, TONGJI UNIVERSITY …, priority 2019, dated 2026):

System: neonatal rat ventricular myocytes (NRVMs)
Assay: Myocyte proliferation assay (EdU) in neonatal rat ventricular myocytes
Type: cell-based
Details: Rattus norvegicus, Ventricular myocyte, growth relative to blank myocyte growth without compound added; for activation at 1 µM: 1 uM compound; for activation at 3 µM: 3 uM compound; for activation at 10 µM: 10 uM compound
Description: 1. Isolation of and Culture Neonatal Rat Ventricular Myocytes (NRVMs)
Ventricles from neonatal rats were separated from the atria, cut into small pieces (about 2×2 mm^2) and then dissociated in Ca^2+-free HBSS containing 0.125 mg ml-1 trypsin (Gibco), 10 μg ml-1 DNase II (Sigma) and 0.1 mg ml-1 collagenase type IV (Sigma). The digestion was carried out under constant stirring at 37° C. for 5 min. The supernatant was collected with FBS (Gibco) after each digestion period. After digestion, the collected supernatant was centrifuged at 1000 g for 10 min at room temperature, and then cell pellets were resuspended in DMEM (Gibco) supplemented with 10% FBS and with 100 uM 5-bromo-2′-deoxyuridine (Sigma). The resuspended cells were passed through a cell strainer ([…], BD Falcon) and seeded onto 100-mm plastic dishes for 2 h at 37° C. in a 5% CO2 to remove fibroblasts, the supernatant was then collected and plated onto 1% gelatin (Sigma)-coated dishes. 24 h after the seeding, the medium was changed to DMEM (Gibco) containing 2% FBS (Gibco), 1% insulin-transferrin-selenium (ITS; Gibco), 1% Penicillin-Streptomycin (Gibco). After 24 hours of low serum culture, remove the medium with DMEM (Gibco) containing 6% FBS (Gibco), 1% insulin-transferrin-selenium (ITS; Gibco), 1% Penicillin-Streptomycin (Gibco), different concentrations of compounds (the compounds were pre-diluted in the medium and the drug concentration was 10 uM, 3 uM, 1 uM, fully mixed). After 36 h add Edu substrate (Invitrogen) according to the manufacturer's guidelines, and then after 12 h cell can be used.
2.1. Immobilization: Remove the medium and fix the cells with […] in 200 ul (whichever is covered) for 15 min and wash the cells twice with 500 ul of PBS for 5 min each time.
2.2. Broken membrane: Add 200 ul of 0.3% Triton-X 100 (diluted in PBS) to each well, incubate for 10-15 min at room temperature (the time should not be too long), and wash the cells twice with 500 ul of PBS for 5 min each time.
2.3. Blocking: Add 200 ul of 10% normal goat serum (diluted with 0.1% PBST) to each well, incubate for 1 h at room temperature, and wash twice with 500 ul of 0.1% PBST for 5 min each time.
2.4. Primary antibody: dilute the primary antibody (abcam, ab8295) to blocking solution at a ratio of 1:200, add 100 ul per well, incubate for 1 h at room temperature (may be slightly longer than 2-3 h), wash the cells twice with 500 ul 0.1% PBST for 5 min each time.
2.5. Secondary antibody: Dilute the fluorescently labeled secondary antibody (abcam, ab150117) into blocking solution at a ratio of 1:200, add 100 ul per well, incubate for 1 h at room temperature (the time should not be too long), wash the cells twice with 0.1% PBST for 5 min each time, pay attention to the whole process. Protected from light.
2.6. Edu staining (Invitrogen C10338)
2.6.1 Prepare Click-iT® reaction cocktail according to Table 3. It was important to add the ingredients in the order listed in the table; otherwise, the reaction would not proceed optimally. Use the Click-iT® reaction cocktail within 15 minutes of preparation.
2.6.2 Add 0.1 mL of Click-iT® reaction cocktail to each well containing a coverslip. Rock the plate briefly to ensure that the reaction cocktail is distributed evenly over the coverslip.
2.6.3 Incubate the plate for 30 minutes at room temperature, protected from light.
2.6.4 Remove the reaction cocktail, then wash the cells twice with 0.1% PBST for 5 min each time.
2.7. DAPI staining: DAPI stain was diluted to PBS at a ratio of 1:1000, 100 ul per well, incubated for 30 min at room temperature, and the cells were washed twice with PBS for 5 min each.
We used Molecular Devices' Image Xpress Micro Confocal for high-throughput photo and data analysis.

Row | SMILES | activation at 1 µM | activation at 3 µM | activation at 10 µM
1 | CN1C(=O)/C(=C/c2ccccc2)N=C1N [TJU-B045, (4Z)-2-amino-1-methyl-4-(phenylmethylidene)-4,5-dihydro-1H-imidazol-5-one] | < 10% | < 10% | 10 to 50%
2 | NC1=N/C(=C\c2ccc3c(c2)OC(F)(F)O3)C(=O)N1 [TJU-B049, (4Z)-2-amino-4-[(2,2-difluoro-2H-1,3-benzodioxol-5-yl)methylidene]-4,5-dihydro-1H-imidazol-5-one] | 10 to 50% | < 10% | 10 to 50%
3 | CN1C(=O)/C(=C/c2ccc(F)cc2)N=C1N [TJU-B050, (4Z)-2-amino-4-[(4-fluorophenyl)methylidene]-1-methyl-4,5-dihydro-1H-imidazol-5-one] | < 10% | < 10% | 10 to 50%
4 | COc1cc(/C=C2\N=C(Nc3ccccc3)NC2=O)cc2c1OCO2 [TJU-B051, (4Z)-4-[(7-methoxy-2H-1,3-benzodioxol-5-yl)methylidene]-2-(phenylamino)-4,5-dihydro-1H-imidazol-5-one] | < 10% | < 10% | 10 to 50%
5 | CN1C(=O)/C(=C/c2ccc3c(c2)OCO3)N=C1NCC1CC1 [TJU-B052, (4Z)-4-[(2H-1,3-benzodioxol-5-yl)methylidene]-2-[(cyclopropylmethyl)amino]-1-methyl-4,5-dihydro-1H-imidazol-5-one] | 10 to 50% | 10 to 50% | 10 to 50%
6 | CN1C(=O)/C(=C/c2cccc(Cl)c2)N=C1N [TJU-B056, (4Z)-2-amino-4-[(3-chlorophenyl)methylidene]-1-methyl-4,5-dihydro-1H-imidazol-5-one] | < 10% | < 10% | < 10%
7 | CN1C(=O)/C(=C/c2ccc3c(c2)OCO3)N=C1N [TJU-B057, (4Z)-2-amino-4-[(2H-1,3-benzodioxol-5-yl)methylidene]-1-methyl-4,5-dihydro-1H-imidazol-5-one] | 10 to 50% | < 10% | < 10%
8 | N#Cc1ccc(NC2=N/C(=C\c3ccc4c(c3)OCO4)C(=O)N2)cc1 [TJU-B058, 4-{[(4Z)-4-[(2H-1,3-benzodioxol-5-yl)methylidene]-5-oxo-4,5-dihydro-1H-imidazol-2-yl]amino} benzonitrile] | 10 to 50% | < 10% | < 10%
9 | O=C1NC(C2CC2)=N/C1=C\c1ccc2c(c1)OCO2 [TJU-B059, (4Z)-4-[(2H-1,3-benzodioxol-5-yl)methylidene]-2-cyclopropyl-4,5-dihydro-1H-imidazol-5-one] | < 10% | < 10% | < 10%
10 | O=C1NC(Nc2ccc(Cl)cc2)=N/C1=C\c1ccc2c(c1)OCO2 [TJU-B060, (4Z)-4-[(2H-1,3-benzodioxol-5-yl)methylidene]-2-[(4-chlorophenyl)amino]-4,5-dihydro-1H-imidazol-5-one] | < 10% | < 10% | < 10%
11 | O=C1NC(c2ccccc2)=N/C1=C\c1ccc2c(c1)OC(F)(F)O2 [TJU-B063, (4Z)-4-[(2,2-difluoro-2H-1,3-benzodioxol-5-yl)methylidene]-2-phenyl-4,5-dihydro-1H-imidazol-5-one] | < 10% | > 50% | < 10%
12 | NC1=N/C(=C\c2cc3c(cc2Cl)OCO3)C(=O)N1 [TJU-B064, (4Z)-2-amino-4-[(6-chloro-2H-1,3-benzodioxol-5-yl)methylidene]-4,5-dihydro-1H-imidazol-5-one] | < 10% | < 10% | < 10%
13 | COc1cc(/C=C2\N=C(N)NC2=O)cc2c1OCO2 [TJU-B065, (4Z)-2-amino-4-[(7-methoxy-2H-1,3-benzodioxol-5-yl)methylidene]-4,5-dihydro-1H-imidazol-5-one] | < 10% | < 10% | < 10%
14 | O=C1NC(NCCN2CCOCC2)=N/C1=C\c1ccc2c(c1)OC(F)(F)O2 [TJU-B066, (4Z)-4-[(2,2-difluoro-2H-1,3-benzodioxol-5-yl)methylidene]-2-{[2-(morpholin-4-yl)ethyl]amino}-4,5-dihydro-1H-imidazol-5-one] | 10 to 50% | < 10% | < 10%
15 | CN1C(=O)/C(=C/c2ccccc2F)N=C1N [TJU-B067, (4Z)-2-amino-4-[(2-fluorophenyl)methylidene]-1-methyl-4,5-dihydro-1H-imidazol-5-one] | < 10% | < 10% | < 10%
16 | COc1ccc(/C=C2\N=C(N)N(C)C2=O)cc1OC [TJU-B070, (4Z)-2-amino-4-[(3,4-dimethoxyphenyl)methylidene]-1-methyl-4,5-dihydro-1H-imidazol-5-one] | < 10% | < 10% | < 10%
17 | COc1ccc(/C=C2\N=C(Nc3ccccc3)NC2=O)cc1OC [TJU-B085, (4Z)-4-[(3,4-dimethoxyphenyl)methylidene]-2-(phenylamino)-4,5-dihydro-1H-imidazol-5-one] | < 10% | < 10% | < 10%
18 | CN1C(=O)/C(=C/c2ccc3c(c2)OCO3)N=C1Nc1ccc2c(c1)OCO2 [TJU-B088, (4Z)-2-[(2H-1,3-benzodioxol-5-yl)amino]-4-[(2H-1,3-benzodioxol-5-yl)methylidene]-1-methyl-4,5-dihydro-1H-imidazol-5-one] | 10 to 50% | < 10% | < 10%
19 | O=C1NC(Nc2ccccn2)=N/C1=C\c1ccc2c(c1)OCO2 [TJU-B097, (4Z)-4-[(2H-1,3-benzodioxol-5-yl)methylidene]-2-[(pyridin-2-yl)amino]-4,5-dihydro-1H-imidazol-5-one] | < 10% | < 10% | < 10%
20 | Cc1ccc(NC2=N/C(=C\c3ccc4c(c3)OCO4)C(=O)N2)cc1 [TJU-B110, (4Z)-4-[(2H-1,3-benzodioxol-5-yl)methylidene]-2-[(4-methylphenyl)amino]-4,5-dihydro-1H-imidazol-5-one] | 10 to 50% | < 10% | < 10%
21 | O=C1NC(NC2CCCCC2)=N/C1=C\c1ccc2c(c1)OCO2 [TJU-B253, (4Z)-4-[(2H-1,3-benzodioxol-5-yl)methylidene]-2-(cyclohexylamino)-4,5-dihydro-1H-imidazol-5-one] | < 10% | < 10% | < 10%
22 | COc1ccccc1NC1=N/C(=C\c2ccc3c(c2)OCO3)C(=O)N1 [TJU-B254, (4Z)-4-[(2H-1,3-benzodioxol-5-yl)methylidene]-2-[(2-methoxyphenyl)amino]-4,5-dihydro-1H-imidazol-5-one] | < 10% | < 10% | < 10%
